Assay results: patent publication US7030110B2, “Cyclic oxyguanidine pyrazinones as protease inhibitors” (Ortho-McNeil Pharmaceuticals, Inc., priority 2000, dated 2006)
Structures can show the parent of a compound that is named as a salt.

Biological target: T1, human α-thrombin (Homo sapiens, UniProt P00734)
T1 construct: Human α-thrombin, human factor Xa and human plasmin were obtained from Enzyme Research Laboratories; purchased Enzyme Research Laboratories (South Bend, Indiana)
Assay: In vitro inhibition of purified thrombin, Ki determination (p-nitroanilide substrate hydrolysis)
Type: biochemical
Details: purified human α-thrombin 0.5 nM; substrate N-succinyl-Ala-Ala-Pro-Arg-p-nitroanilide; 50 mM HEPES, 200 mM NaCl, pH 7.5; 37° C.
Excerpt: Reagents: All buffer salts were obtained from Sigma Chemical Company (St. Louis, Mo.), and were of the highest purity available. The enzyme substrates, N-benzoyl-Phe-Val-Arg-p-nitroanilide (Sigma B7632), N-benzoyl-Ile-Glu-Gly-Arg-p-nitroanilide hydrochloride (Sigma B2291), N-p-Tosyl-Gly-Pro-Lys-p-nitroanilide (Sigma T6140), N-succinyl-Ala-Ala-Pro-Phe-p-nitroanilide (Sigma S7388) and N-CBZ-Val-Gly-Arg-p-nitroanilide (Sigma C7271) were obtained from Sigma. N-succinyl-Ala-Ala-Pro-Arg-p-nitroanilide (BACHEM L-1720) and N-succinyl-Ala-Ala-Pro-Val-p-nitroanilide (BACHEM L-1770) were obtained from BACHEM (King of Prussia, Pa.). […]
Ki Determinations: All assays are based on the ability of the test compound to inhibit the enzyme catalyzed hydrolysis of a peptide p-nitroanilide substrate. […] In general, substrate concentrations are lower than the experimentally determined value for Km. […]
In a typical K1 determination, into each well of a 96 well plate is pipetted […] of substrate solution, […] of test compound solution, and the plate allowed to thermally equilibrate at 37° C. in a Molecular Devices plate reader for >15 minutes. Reactions were initiated by the addition of a […] aliquot of enzyme and the absorbance increase at 405 nm is recorded for 15 minutes. […] The data are fit to a linear regression, and the value of the slope of the line calculated. […]

Ki [nM] | SMILES
0.6 to 1.3 | Cc1ccc(CCNc2ncc(C)n(CC(=O)NC3CCN(C(=N)N)OC3)c2=O)cc1 (centres unmarked) [Example 1, N-(2-Carbamimidoyl-[1,2]oxazinan-5-yl)-2-[6-methyl-2-oxo-3-(2-p-tolylethylamino)-2H-pyrazin-1-yl]-acetamide trifluoroacetate]
5 | Cc1cnc(NCC(F)(F)c2ccccc2)c(=O)n1CC(=O)NCC1CNC(=N)NO1 (centres unmarked) [Example 2, 2-[3-(2,2-Difluoro-2-phenylethylamino)-6-methyl-2-oxo-2H-pyrazin-1-yl]-N-(3-imino-[1,2,4]oxadiazinan-6-ylmethyl)-acetamide Trifluoroacetate]
